Structures can show the parent of a compound that is named as a salt.

Broadly, the melting point is the temperature, or range, at which the solid turns liquid. Molecule `COc1cc(CC(=O)N2C[C@@H](N(C)C)C[C@H]2COc2ccc(C(=O)O)cc2)ccc1NC(=O)Nc1ccccc1C` returned a melting point of 147 to 150 °C.

For `COc1cc(CC(=O)N2C[C@H](N(C)C)C[C@H]2COc2ccc(C(=O)O)cc2)ccc1NC(=O)Nc1ccccc1Cl`, the melting point was in the range of 159 to 161 °C.

On to `COc1cc(CC(=O)N2C[C@@H](N(C)C)C[C@H]2COc2ccc(C(=O)O)cc2)ccc1NC(=O)Nc1ccccc1Cl`, for which the melting point was 165 to 167 °C.

`COc1cc(CC(=O)N2CCCC2CN2CCN(CC(=O)O)CC2)ccc1NC(=O)Nc1ccccc1C` (stereo not drawn) (as salt: salt) came in with a melting point of 160 to 170 °C.

Consider `COc1cc(CC(=O)N(C)CCOc2ccc(C(=O)O)cc2C(=O)O)ccc1NC(=O)Nc1ccccc1C` (as salt: salt) [Compound 254, 4-[[2-[3-methoxy-4-[N′-(2-methylphenyl)ureido]phenylacetyl]methylamino]ethoxy]isophthalic acid], for which the melting point is 139 to 141 °C.

`COc1cc(CC(=O)N2CCC[C@H]2CS(=O)(=O)c2cccc(C(=O)O)c2)ccc1NC(=O)Nc1ccccc1C` (stereo in doubt) (as salt: salt) [Compound 21, 3-[[1-[3-methoxy-4-[N′-(2-methylphenyl)ureido]phenylacetyl]-2-pyrrolidinyl]methylsulfonyl]benzoic acid]: the melting point fell in the range of 243 to 245 °C.

Consider `COc1cc(CC(=O)N2CCC[C@H]2COc2ccc(C(=O)O)cc2F)ccc1NC(=O)Nc1ccccc1C` (stereo in doubt) [Compound 38, 3-fluoro-4-[[1-[3-methoxy-4-[N′-(2-methylphenyl)ureido]phenylacetyl]-2-pyrrolidinyl]methoxy]benzoic acid], for which the melting point fell in the range of 123 to 126 °C.

`COc1cc(CC(=O)N2CCC[C@H]2COc2ccc(C(=O)O)cc2OC)ccc1NC(=O)Nc1ccccc1F` (stereo in doubt) [Compound 39, 4-[1-[4-[N′-(2-fluorophenyl)ureido]-3-methoxyphenylacetyl]-2-pyrrolidinyl]methoxy-3-methoxy benzoic acid] registered a melting point of 140 to 144 °C.

`COc1cc(CC(=O)N2CCC[C@H]2COc2ccc(C(=O)O)cn2)ccc1NC(=O)Nc1ccccc1C` (stereo in doubt) [Compound 40, 2-[[1-[3-methoxy-4-[N′-(2-methylphenyl)ureido]phenylacetyl]-2-pyrrolidinyl]methoxy]pyridine-5-carboxylic acid]: the melting point was 125 to 128 °C.

Molecule `COc1cc(CC(=O)N2CCC[C@H]2COc2ncc(C(=O)O)cc2Cl)ccc1NC(=O)Nc1ccccc1C` (stereo in doubt) [Compound 47, 3-chloro-2-[[1-[3-methoxy-4-[N′-(2-methylphenyl)ureido]phenylacetyl]-2-pyrrolidinyl]methoxy]pyridine-5-carboxylic acid] displayed a melting point of 122 to 125 °C.

`COc1cc(CC(=O)N2CC(F)(F)C[C@H]2COc2ccc(C(=O)O)cc2)ccc1NC(=O)Nc1ccccc1C` (stereo in doubt) [Compound 139, 4-[4,4-difluoro-1-[3-methoxy-4-[N′-(2-methylphenyl)ureido]phenylacetyl]-2-pyrrolidinylmethoxy]benzoic acid] showed a melting point of 135 to 140 °C.

As to `COc1cc(CC(=O)N2CC(N)C[C@H]2COc2ccc(C(=O)O)cc2)ccc1NC(=O)Nc1ccccc1C` (stereo in doubt) [Compound 151, 4-[trans-4-amino-1-[3-methoxy-4-[N′-(2-methylphenyl)ureido]phenylacetyl]-(2S)-pyrrolidinyl]methoxybenzoic acid], the melting point fell in the range of 170 to 171 °C.

`COc1cc(CC(=O)N2CSC[C@H]2COc2ccc(C(=O)O)cc2)ccc1NC(=O)Nc1ccccc1C` (stereo in doubt) [Compound 168, 4-[3-[3-methoxy-4-[N′-(2-methylphenyl)ureido]phenyl]acetyl-4-thiazolidinyl]methoxybenzoic acid] returned a melting point of 125 to 128 °C.

For the molecule `COc1cc(CC(=O)N2CSC[C@H]2COc2ccc(C(=O)O)cc2)ccc1NC(=O)Nc1ccccc1Cl` (stereo in doubt) [Compound 169, 4-[3-[4-[N′-(2-chlorophenyl)ureido]-3-methoxyphenylacetyl]-4-thiazolidinyl]methoxybenzoic acid], the melting point lay within 126 to 129 °C.

Molecule `COc1cc(CC(=O)N2CSC[C@H]2COc2ccc(C(=O)O)cc2)ccc1NC(=O)Nc1ccccc1Br` (stereo in doubt) [Compound 170, 4-[3-[4-[N′-(2-bromophenyl)ureido]-3-methoxyphenylacetyl]-4-thiazolidinyl]methoxybenzoic acid] had a melting point of 125 to 133 °C.

`COc1cc(CC(=O)N2CCC[C@H]2C(=O)NC2CCC(C(=O)O)CC2)ccc1NC(=O)Nc1ccccc1C` (stereo in doubt) [Compound 180, 4-[[1-[3-methoxy-4-[N′-(2-methylphenyl)ureido]phenylacetyl]-2-pyrrolidinyl]carbonylamino]cyclohexanecarboxylic acid] came in with a melting point of 136 to 142 °C.

In the case of `COc1cc(CC(=O)N2CCC[C@H]2C(=O)NC2CCC(C(=O)O)CC2)ccc1NC(=O)Nc1ccccc1Cl` (stereo in doubt) [Compound 181, 4-[[1-[4-[N′-(2-chlorophenyl)ureido]-3-methoxylphenylacetyl]-2-pyrrolidinyl]carbonylamino]cyclohexanecarboxylic acid], the melting point lay within 135 to 140 °C.

Molecule `Cc1ccccc1NC(=O)Nc1ccc(CC(=O)N2CCCC2/C=C/c2ccc(C(=O)O)cc2)cc1` (stereo not drawn) [Compound 6, (E)-4-[2-[1-[4-[N′-(2-methylphenyl)ureido]phenylacetyl]-2-pyrrolidinyl]ethenyl]benzoic acid] displayed a melting point of 165 to 168 °C.

The molecule `Cc1ccccc1NC(=O)Nc1ccc(CC(=O)N2CCCC2CCc2ccc(C(=O)O)cc2)cc1` (stereo not drawn) [Compound 7, 4-[2-[1-[4-[N′-(2-methylphenyl)ureido]phenylacetyl]-2-pyrrolindinyl]ethyl]benzoic acid] yielded a melting point of 180 to 190 °C.

As for `COc1cc(CC(=O)N2CCCC2C#Cc2ccc(C(=O)O)cc2)ccc1NC(=O)Nc1ccccc1` (stereo not drawn) [Compound 13, 4-[2-[1-[3-methoxy4-(N′-phenylureido)phenylacetyl]-2-pyrrolidinyl]ethynyl]benzoic acid], the melting point is 154 to 157 °C.

Take `COc1cc(CC(=O)N2CCCC2C#Cc2ccc(C(=O)O)cc2)ccc1NC(=O)Nc1ccccc1C` (stereo not drawn) [Compound 14, 4-[2-[1-[3-methoxy-4-[N′-(2-methylphenyl)ureido]phenylacetyl]-2-pyrrolidinyl]ethynyl]benzoic acid]: the melting point fell in the range of 161 to 164 °C.

`COc1cc(CC(=O)N2CCC[C@H]2COc2ccc(C(=O)O)cc2OC)ccc1NC(=O)Nc1ccccc1C` [Compound 27]: the melting point lay in the range of 132 to 135 °C.

With `COc1cc(CC(=O)N2CCCC2C#Cc2ccc(C(=O)O)cc2)ccc1NC(=O)Nc1ccccc1F` (stereo not drawn) [Compound 33, 4-[2-[1-[4-[N′-(2-fluorophenyl)ureido)-3-methoxyphenylacetyl]-2-pyrrolidinyl]ethynyl]benzoic acid], the melting point was 152 to 155 °C (dec.).

`COc1cc(C(=O)O)ccc1OCc1csc(Cc2ccc(NC(=O)Nc3ccccc3C)cc2)n1` [Compound 41, 3-methoxy-4-[2-[4-[N′-(2-methylphenyl)ureido]benzyl]4-thiazolyl]methoxybenzoic acid] returned a melting point of 243 to 245 °C.

`COc1cc(CC(=O)N2CCC[C@H]2COc2ccc(C(=O)O)cc2)ccc1NC(=O)Nc1ccccc1Br` [Compound 59, 4-[1-[4-[N′-(2-bromophenyl)ureido]-3-methoxylphenylacetyl]-(2S)-pyrrolidinyl]methoxybenzoic acid] returned a melting point of 120 to 125 °C.

For `O=C(Nc1ccccc1)Nc1ccc(CC(=O)N2C[C@@H](F)C[C@H]2COc2ccc(C(=O)O)cc2)cc1` [Compound 72, 4-[(4S)-fluoro-1-[4-(N′-phenylureido)phenylacetyl]-(2S)-pyrrolidinylmethoxy]benzoic acid], the melting point was 169 to 171 °C.

Consider `Cc1cc(CC(=O)N2C[C@@H](F)C[C@H]2COc2ccc(C(=O)O)cc2)ccc1NC(=O)Nc1ccccc1` [Compound 73, 4-[(4S)-fluoro-1-[3-methyl-4-(N′-phenylureido)phenylacetyl]-(2S)-pyrrolidinylmethoxy]benzoic acid], for which the melting point lay within 130 to 135 °C.

`Cc1cc(CC(=O)N2C[C@@H](F)C[C@H]2COc2ccc(C(=O)O)cc2)ccc1NC(=O)Nc1ccccc1F` [Compound 74, 4-[(4S)-fluoro-1-[4-[N′-(2-fluorophenyl)ureido]-3-methylphenylacetyl]-(2S)-pyrrolidinylmethoxy]benzoic acid] showed a melting point of 137 to 143 °C.

Turning to `O=C(Nc1ccc(CC(=O)N2C[C@@H](F)C[C@H]2COc2ccc(C(=O)O)cc2)cc1)Nc1ccccc1C(F)(F)F` [Compound 75, 4-[(4S)-fluoro-1-[4-[N′-(2-trifluoromethylphenyl)ureido]phenylacetyl]-(2S)-pyrrolidinylmethoxy]benzoic acid], the melting point lay within 130 to 135 °C.

In the case of `COc1cc(CC(=O)N2C[C@@H](F)C[C@H]2COc2ccc(C(=O)O)cc2)ccc1NC(=O)Nc1ccccc1C(F)(F)F` [Compound 76, 4-[(4S)-fluoro-1-[3-methoxy-4-[N′-(2-trifluoromethylphenyl)ureido]phenylacetyl]-(2S)-pyrrolidinylmethoxy]benzoic acid], the melting point was in the range of 129 to 132 °C.

Take `Cc1cc(CC(=O)N2C[C@@H](F)C[C@H]2COc2ccc(C(=O)O)cc2)ccc1NC(=O)Nc1ccccc1C(F)(F)F` [Compound 77, 4-[(4S)-fluoro-1-[3-methyl-4-[N′-(2-trifluoromethylphenyl)ureido]phenylacetyl]-(2S)-pyrrolidinylmethoxy]benzoic acid]: the melting point lay in the range of 123 to 126 °C.

`Cc1cc(CC(=O)N2CCC[C@H]2COc2ccc(C(=O)O)cc2)ccc1NC(=O)Nc1ccccc1Cl` [Compound 81, 4-[1-[4-[N′-(2-chlorophenyl)ureido]-3-methylphenylacetyl]-(2S)-pyrrolidinyl]methoxybenzoic acid] returned a melting point of 122 to 124 °C.

On to `Cc1cc(CC(=O)N2CCC[C@H]2COc2ccc(C(=O)O)cc2)ccc1NC(=O)Nc1ccccc1Br` [Compound 82, 4-[1-[4-[N′-(2-bromophenyl)ureido]-3-methylphenylacetyl]-(2S)-pyrrolidinyl]methoxybenzoic acid], for which the melting point lay in the range of 125 to 130 °C.

The values above are taken from patent US7179819B2, “VLA-4 inhibitor compounds” (Daiichi Pharmaceutical Co., Ltd., priority 1999, dated 2007).
